Our source for the IC50 values is patent US8791123B2, “Substituted pyrazolo[1,5-a]pyrimidine compounds as Trk kinase inhibitors” (Array Biopharma, Inc., priority 2009, dated 2014).

The target in assay [1] is TrkA (histidine-tagged recombinant human TrkA, cytoplasmic domain) (Homo sapiens (Human), UniProt P04629). Nature of the assay: TrkA ELISA Assay. It is filed as biochemical. As to conditions: Table 1; ELISA, 500 μM ATP; read-out: TrkA Enzyme IC50. In outline: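 His-tagged human TrkA cytoplasmic domain phosphorylated poly(Glu,Ala,Tyr 6:3:1) coated at 0.025 mg/mL, with inhibitors present. Phosphotyrosine was detected with HRP-conjugated PY20 antibody (0.2 μg/mL) and TMB, read as absorbance at 450 nm after phosphoric acid stop.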
In general terms: In an ELISA, binding on a coated surface is turned into a signal by an enzyme label.

The next assay has as its target Human Jak2 kinase domain (Homo sapiens (Human), UniProt O60674). Briefly: Jak2 Inhibition Assay (Omnia kinase assay). Format: biochemical. The conditions noted are these: Table 1; 500 μM ATP; >1000 nM when >50% inhibition not observed at 1000 nM; read-out: Jak2 Enzyme IC50.

Structures are written as SMILES. A value given as a limit tells only on which side of the number the result lay.

Sequence of Human Jak2 kinase domain (O60674 808-1132): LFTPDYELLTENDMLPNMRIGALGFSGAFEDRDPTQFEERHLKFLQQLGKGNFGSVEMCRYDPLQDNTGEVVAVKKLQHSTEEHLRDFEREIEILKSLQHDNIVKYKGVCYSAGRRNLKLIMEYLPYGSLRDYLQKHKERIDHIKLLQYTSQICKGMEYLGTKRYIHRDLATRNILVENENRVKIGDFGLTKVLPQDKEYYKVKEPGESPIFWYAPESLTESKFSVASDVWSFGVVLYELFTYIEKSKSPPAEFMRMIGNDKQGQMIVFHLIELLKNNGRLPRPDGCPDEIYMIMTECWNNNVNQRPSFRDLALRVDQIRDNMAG
Sequence of TrkA (histidine-tagged recombinant human TrkA, cytoplasmic domain) (P04629 440-796): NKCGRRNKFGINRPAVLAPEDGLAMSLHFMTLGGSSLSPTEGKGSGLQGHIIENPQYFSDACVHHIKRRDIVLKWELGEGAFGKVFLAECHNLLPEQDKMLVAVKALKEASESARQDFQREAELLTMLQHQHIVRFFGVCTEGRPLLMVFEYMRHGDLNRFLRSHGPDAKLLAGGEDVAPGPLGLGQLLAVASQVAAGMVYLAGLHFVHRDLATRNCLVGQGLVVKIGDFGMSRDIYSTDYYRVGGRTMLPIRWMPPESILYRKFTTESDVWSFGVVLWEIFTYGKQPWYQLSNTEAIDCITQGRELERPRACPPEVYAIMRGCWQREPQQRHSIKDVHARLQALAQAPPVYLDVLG

As a reminder, the IC50 is the midpoint of a concentration-inhibition curve. In the case of `O=C(NC1CC1)c1cnn2ccc(N3CCC[C@@H]3c3cc(F)cc(OCC(O)CO)c3)nc12` (stereo partly drawn) [Example 208, N-cyclopropyl-5-((2R)-2-(3-(2,3-dihydroxypropoxy)-5-fluorophenyl)pyrrolidin-1-yl)pyrazolo[1,5-a]pyrimidine-3-carboxamide], the results for the IC50 (in assay [1]; at Human Jak2 kinase domain) were 1.7 nM and over 1000 nM, respectively.
In the case of `O=C(NCCN1CCNC1=O)c1cnn2ccc(N3CCC[C@@H]3c3cc(F)ccc3F)nc12` [Example 24, (R)-5-(2-(2,5-difluorophenyl)pyrrolidin-1-yl)-N-(2-(2-oxoimidazolidin-1-yl)ethyl) pyrazole[1,5-a]pyrimidine-3-carboxamide], the results for the IC50 (in assay [1]; at Human Jak2 kinase domain) were 3.6 nM and over 1000 nM, respectively.
For the compound `Cn1cc(F)cc([C@H]2CCCN2c2ccn3ncc(C(=O)Nc4ccc(F)cn4)c3n2)c1=O` [Example 239, (R)-5-(2-(5-fluoro-1-methyl-2-oxo-1,2-dihydropyridin-3-yl)pyrrolidin-1-yl)-N-(5-fluoropyridin-2-yl)pyrazolo[1,5-a]pyrimidine-3-carboxamide], the values for the IC50 (in assay [1]; on Human Jak2 kinase domain) were 10.1 nM and over 1000 nM, respectively.
Regarding `COCCNC(=O)c1cnn2ccc(N3CCC[C@@H]3c3cc(F)cnc3C)nc12` [Example 191, (R)-5-(2-(5-fluoro-2-methylpyridin-3-yl)pyrrolidin-1-yl)-N-(2-methoxyethyl)pyrazolo[1,5-a]pyrimidine-3-carboxamide], the IC50 in assay [1] is 69.5 nM; at Human Jak2 kinase domain it was over 1000 nM.
Turning to `CC(C)(CO)NC(=O)c1cnn2ccc(N3CCC[C@@H]3c3cncc(F)c3)nc12` [Example 132, (R)-5-(2-(5-fluoropyridin-3-yl)pyrrolidin-1-yl)-N-(1-hydroxy-2-methylpropan-2-yl)pyrazolo[1,5-a]pyrimidine-3-carboxamide], the IC50 is 44.4 nM in assay [1] and over 1000 nM at Human Jak2 kinase domain.
For `CC(C)NC(=O)c1cnn2ccc(N3CCC[C@@H]3c3cc(F)cn(C)c3=O)nc12` [Example 227, (R)-5-(2-(5-fluoro-1-methyl-2-oxo-1,2-dihydropyridin-3-yl)pyrrolidin-1-yl)-N-isopropylpyrazolo[1,5-a]pyrimidine-3-carboxamide], in that order: 12.3 nM and 446 nM.
`O=C(NC1CCC1)c1cnn2ccc(N3CCC[C@@H]3c3cncc(F)c3)nc12` [Example 101, (R)-N-cyclobutyl-5-(2-(5-fluoropyridin-3-yl)pyrrolidin-1-yl)pyrazolo[1,5-a]pyrimidine-3-carboxamide]: the values for the IC50 (in assay [1]; at Human Jak2 kinase domain) were 11.7 nM and over 1000 nM, respectively.
Take `CONC(=O)c1cnn2ccc(N3CCC[C@@H]3c3cccc(F)c3)nc12` [Example 75]: the IC50 in assay [1] is 6.95 nM; on Human Jak2 kinase domain it was over 1000 nM.
In the case of `CC(C)(CF)NC(=O)c1cnn2ccc(N3CCC[C@@H]3c3cc(F)ccc3F)nc12` [Example 40, (R)-5-(2-(2,5-difluorophenyl)pyrrolidin-1-yl)-N-(1-fluoro-2-methylpropan-2-yl)pyrazolo[1,5-a]pyrimidine-3-carboxamide], the concentration for half-maximal inhibition (IC50) in assay [1] is 0.8 nM; on Human Jak2 kinase domain it was over 1000 nM.
On the same counts, the results for `Cc1cccnc1NC(=O)c1cnn2ccc(N3CCC[C@@H]3c3cc(F)ccc3F)nc12` [Example 3, (R)-5-(2-(2,5-difluorophenyl)pyrrolidin-1-yl)-N-(3-methylpyridin-2-yl)pyrazolo[1,5-a]pyrimidine-3-carboxamide] are 2.3 nM and over 1000 nM.
For `CC1(NC(=O)c2cnn3ccc(N4CCC[C@@H]4c4cncc(F)c4)nc23)CCC1` [Example 102, (R)-5-(2-(5-fluoropyridin-3-yl)pyrrolidin-1-yl)-N-(1-methylcyclobutyl)pyrazolo[1,5-a]pyrimidine-3-carboxamide], in that order: 5.2 nM and over 1000 nM.
In the case of `CC(C)NC(=O)c1cnn2ccc(N3C[C@@H](O)C[C@@H]3c3cccc(F)c3)nc12` [Example 217, 5-((2R,4S)-2-(3-fluorophenyl)-4-hydroxypyrrolidin-1-yl)-N-isopropylpyrazolo[1,5-a]pyrimidine-3-carboxamide], the IC50 in assay [1] amounted to 5.8 nM; on Human Jak2 kinase domain, 551 nM.
Turning to `O=C(N[C@H]1CC[C@H](O)CC1)c1cnn2ccc(N3CCC[C@@H]3c3cc(F)ccc3F)nc12` [Example 7, 5-((R)-2-(2,5-difluorophenyl)pyrrolidin-1-yl)-N-((trans)-4-hydroxycyclohexyl)pyrazolo[1,5-a]pyrimidine-3-carboxamide], the IC50 in assay [1] came out at 0.45 nM; at Human Jak2 kinase domain, 107 nM.
With `CNC(=O)c1cnn2ccc(N3CCC[C@@H]3c3cc(F)cnc3C)nc12` [Example 186, (R)-5-(2-(5-fluoro-2-methylpyridin-3-yl)pyrrolidin-1-yl)-N-methylpyrazolo[1,5-a]pyrimidine-3-carboxamide], the IC50 in assay [1] is 57.1 nM; on Human Jak2 kinase domain, over 1000 nM.
As to `COc1ncc(F)cc1[C@H]1CCCN1c1ccn2ncc(C(=O)NCCCCO)c2n1` [Example 151, (R)-5-(2-(5-fluoro-2-methoxypyridin-3-yl)pyrrolidin-1-yl)-N-(4-hydroxybutyl)pyrazolo[1,5-a]pyrimidine-3-carboxamide], the values for the 50% inhibitory concentration (IC50) (in assay [1]; on Human Jak2 kinase domain) were 1.4 nM and over 1000 nM, respectively.
Regarding `O=C(NC1CCOCC1)c1cnn2ccc(N3CCC[C@@H]3c3cncc(F)c3)nc12` [Example 72, (R)-5-(2-(5-fluoropyridin-3-yl)pyrrolidin-1-yl)-N-(tetrahydro-2H-pyran-4-yl)pyrazolo[1,5-a]pyrimidine-3-carboxamide], the concentration for half-maximal inhibition (IC50) in assay [1] was 44.4 nM; on Human Jak2 kinase domain, over 1000 nM.
For `O=C(NC1CC1)c1cnn2ccc(N3CCC[C@@H]3c3cc(F)ccc3OCC(O)CO)nc12` (stereo partly drawn) [Example 210, N-cyclopropyl-5-((2R)-2-(2-(2,3-dihydroxypropoxy)-5-fluorophenyl)pyrrolidin-1-yl)pyrazolo[1,5-a]pyrimidine-3-carboxamide], in that order: 3.3 nM and over 1000 nM.
On to `C[C@H](O)[C@H](CO)NC(=O)c1cnn2ccc(N3CCC[C@@H]3c3cc(F)ccc3F)nc12` [Example 175, 5-((R)-2-(2,5-difluorophenyl)pyrrolidin-1-yl)-N-((2S,3S)-1,3-dihydroxybutan-2-yl)pyrazolo[1,5-a]pyrimidine-3-carboxamide], for which the IC50 is 12.2 nM in assay [1] and over 1000 nM on Human Jak2 kinase domain.
Regarding `O=C(NC1CCOCC1)c1cnn2ccc(N3CCC[C@@H]3c3cc(F)ccc3F)nc12` [Example 20, (R)-5-(2-(2,5-difluorophenyl)pyrrolidin-1-yl)-N-(tetrahydro-2H-pyran-4-yl)pyrazolo[1,5-a]pyrimidine-3-carboxamide], the 50% inhibitory concentration (IC50) in assay [1] was 0.6 nM; at Human Jak2 kinase domain, 257 nM.
Take `COc1ncc(F)cc1[C@H]1CCCN1c1ccn2ncc(C(=O)NC3CCN(CCO)CC3)c2n1` [Example 159, (R)-5-(2-(5-fluoro-2-methoxypyridin-3-yl)pyrrolidin-1-yl)-N-(1-(2-hydroxyethyl)piperidin-4-yl)pyrazolo[1,5-a]pyrimidine-3-carboxamide]: the half-maximal inhibitory concentration (IC50) is 4.3 nM in assay [1] and over 1000 nM on Human Jak2 kinase domain.
`COc1ncc(F)cc1[C@H]1CCCN1c1ccn2ncc(C(=O)NC[C@H](C)O)c2n1` [Example 156, 5-((R)-2-(5-fluoro-2-methoxypyridin-3-yl)pyrrolidin-1-yl)-N-((S)-2-hydroxypropyl)pyrazolo[1,5-a]pyrimidine-3-carboxamide]: the IC50 in assay [1] is 2.1 nM; on Human Jak2 kinase domain it was over 1000 nM.
As to `CC(C)(CO)NC(=O)c1cnn2ccc(N3CCC[C@@H]3c3cc(F)ccc3F)nc12` [Example 8, (R)-5-(2-(2,5-difluorophenyl)pyrrolidin-1-yl)-N-(1-hydroxy-2-methylpropan-2-yl)pyrazolo[1,5-a]pyrimidine-3-carboxamide], the half-inhibitory concentration (IC50) in assay [1] was 1.1 nM; at Human Jak2 kinase domain, over 1000 nM.
For `C[C@@H](O)CNC(=O)c1cnn2ccc(N3CCCC3c3cc(F)ccc3F)nc12` (stereo in doubt) [Example 167, 5-((R)-2-(2,5-difluorophenyl)pyrrolidin-1-yl)-N-(2-hydroxypropyl)pyrazolo[1,5-a]pyrimidine-3-carboxamide], in that order: 2.2 nM and over 1000 nM.
In the case of `CNC(=O)c1cnn2ccc(N3C[C@H](O)C[C@@H]3c3cccc(F)c3)nc12` [Example 43, 5-((2R,4R)-2-(3-fluorophenyl)-4-hydroxypyrrolidin-1-yl)-N-methylpyrazolo[1,5-a]pyrimidine-3-carboxamide], the results for the IC50 (in assay [1]; at Human Jak2 kinase domain) were 139 nM and over 1000 nM, respectively.
As to `CC(C)(C)NC(=O)c1cnn2ccc(N3C[C@H](O)C[C@@H]3c3cccc(F)c3)nc12` [Example 42, N-tert-butyl-5-((2R,4R)-2-(3-fluorophenyl)-4-hydroxypyrrolidin-1-yl)pyrazolo[1,5-a]pyrimidine-3-carboxamide], the IC50 was 48.3 nM in assay [1] and over 1000 nM on Human Jak2 kinase domain.
Turning to `COc1ncc(F)cc1[C@H]1CCCN1c1ccn2ncc(C(=O)NOCCOC(C)(C)C)c2n1` [Example 152, (R)-N-(2-tert-butoxyethoxy)-5-(2-(5-fluoro-2-methoxypyridin-3-yl)pyrrolidin-1-yl)pyrazolo[1,5-a]pyrimidine-3-carboxamide], the IC50 in assay [1] was 18.1 nM; on Human Jak2 kinase domain it was over 1000 nM.
